Test system: anti-DNP antibody
Experiment: Competition between free ethanolamine-DNP and DNP on a plate
Format: binding
Settings: 1,000 ug/mL sera concentration
Experimental: The Mean fluorescence intensity (MFI) separation was greatest at the higher dilution of 1,000 ug/mL sera.

O=[N+]([O-])c1ccc(NCCO)c([N+](=O)[O-])c1 [ethanolamine-DNP]
competition with the binding of DNP (on a plate) to anti-DNP antibody: direct competition

Reference: patent publication US20120269799A1, “DIAGNOSTIC AND TREATMENT METHODS USING A LIGAND LIBRARY” (priority 2011, published 2012)
